{"source": "patent US20260167614A1", "about": "“IDENTIFICATION OF SMALL MOLECULES THAT RECRUIT AND ACTIVATE RNASE L” (UNIVERSITY OF FLORIDA RESEARCH FOUNDATION, INCORPORATED, priority 2022, published 2026)", "key": {"MCF-10A cells": {"tested_on": "MCF-10A cells", "experiment": "Boyden chamber invasion assay, MCF-10A with forced pre-miR-21 expression", "assay_type": "cell-based", "settings": "WT pre-miR-21 plasmid", "method": "(§1) The effect of the RiboTAC on a miR-21-associated invasive phenotype was next assessed. Treatment with 5 μM of 7 reduced the invasiveness of MDA-MB-231 cells, by ˜30% (p<0.05) (FIG. 4E-F). […] While forced expression of a mutant pre-miR-21 in which the Dovitinib-binding site is mutated also produced an invasive phenotype, the cells were insensitive to treatment with 7 (FIG. 12).\nMCF-10A cells were first transfected with either a plasmid expressing pre-miR-21 (Addgene; catalog #21114) or a plasmid encoding a pre-miR-21 mutant (custom purchased from GenScript USA, Inc, FIG. 8) using jetPRIME (Polyplus), per the manufacturer's protocol (3.2 μg of plasmid per 60 mm dish). After transfection, cells (50,000 per insert) were seeded into the hanging inserts in serum free growth medium, with or without compound (0.1% final DMSO concentration). The assay was then completed as described for the MDA-MB-231 cells."}, "MDA-MB-231 cells [1]": {"tested_on": "MDA-MB-231 cells", "experiment": "Boyden chamber invasion assay, MDA-MB-231", "assay_type": "cell-based", "settings": "5 μM", "method": "as §1\nBoyden Chamber Invasion Assay. Hanging cell culture inserts (for 24-well plates, 8.0 μm) were pre-coated with 0.3 mg/mL Matrigel (Corning, 356234). MDA-MB-231 cells (75,000 per insert) were then seeded into the hanging inserts in serum free growth medium, with or without compound (0.1% final DMSO concentration). The inserts were then placed into 24-well plates containing complete. After 16-24 h, the medium was removed, and the hanging inserts were washed with 1×DPBS. Cells were fixed for 20 min at room temperature with 4% (w/v) paraformaldehyde in 1×DPBS. The inserts were washed twice with 1×DPBS and then stained with 0.1% (w/v) crystal violet in 20% methanol (v/v) for 20 min. The inserts were then washed twice with Nanopure water and once with 1×DPBS. Cells on the surface of the Matrigel (noninvasive) were removed with cotton swabs and invading cells were imaged under a Leica DMI3000 B […] fluorescent microscope (the number of invasive cells in 4 fields of view per sample)."}, "pre-miR-21": {"tested_on": "pre-miR-21", "experiment": "RT-qPCR of pre-miR-21 in CRISPR-Control sgRNA MDA-MB-231 cells", "assay_type": "cell-based", "settings": "5 μM", "method": "(§2) Two CRISPR-modified MDA-MB-231 cell lines with either a scrambled control guide RNA (“Control sgRNA”; RNase L is expressed) or with an RNase L-targeting guide RNA (“RNase L-Targeting sgRNA”; RNase L protein abundance is knocked down) were used to complete these studies.\nMDA-MB-231 cells were treated with compound (0.1% DMSO final concentration) for 24 h, followed by removal of the compound-containing medium and redosing in growth medium for an additional 24 h (total treatment period of 48 h), with the exception of invasion assays in which the cells were treated overnight. For the time-course experiment, MDA-MB-231 cells were treated for the indicated lengths of time. MCF-10A cells, also used in invasion assays, were treated with compound overnight (0.1% DMSO final concentration).\nRNA Isolation and Quantitative Real-Time Polymerase Chain Reaction (RT-qPCR). MDAMB-231 cells were cultured as described in “Cell Culture.” After compound treatment, total RNA was extracted using a Quick-RNA Miniprep Kit (Zymo) per the manufacturer's instructions. […] RT-qPCR was performed on a QuantStudio5™ Real-Time PCR Instrument (Applied Biosystems) using Power SYBR Green Master Mix (Applied Biosystems), and the resulting data were analyzed using the ΔΔCt method."}, "mature and pre-miR-21": {"tested_on": "mature and pre-miR-21", "experiment": "RT-qPCR in RNase L-Targeting sgRNA (knock-down) MDA-MB-231 cells", "assay_type": "cell-based", "settings": "RNase L knocked down by CRISPR", "excerpt": "as §2\nGeneration of the RNase L Knockdown MDA-MB-231 Cell Line. RNase L knockdown and control MDA-MB-231 cell lines were generated by CRISPR as previously described.^1 Briefly, lentiviral constructs containing Cas9 and gRNAs against RNASEL or a negative control were purchased from Transomic Technologies, Inc. [catalog #TEVH-1249025-pCLIP-ALL-hCMVPuro (KD+) and TELA1015 (KD−)] and packaged by transfecting HEK293T cells (ATCC, catalog #CRL-11268) using Lipofectamine 2000 transfection reagent (Invitrogen; catalog #11668500) and Cellecta packaging mix (Cellecta, catalog #CPCP-K2A) in Opti-MEM (Gibco, catalog #31985070). Virus supernatants were harvested 72 h post-transfection and filtered through a 0.45 μm PES filter (mdi Membrane Technologies Inc., catalog #SYPL0602MNXX204). […]\nRNA Isolation and Quantitative Real-Time Polymerase Chain Reaction (RT-qPCR). […] RT-qPCR was performed on a QuantStudio5™ Real-Time PCR Instrument (Applied Biosystems) using Power SYBR Green Master Mix (Applied Biosystems), and the resulting data were analyzed using the ΔΔCt method."}, "[2]": {"experiment": "RiboTAC cellular uptake quantification", "assay_type": "in vitro ADME", "settings": "human, MDA-MB-231 cells; 5 μM in culture medium", "method": "(§3) A time-course for RiboTAC degradation of pre-miR-21 was completed and compared to its cellular permeability. […] Additionally, degradation of pre-miR-21 is first detectable after 48 h of treatment with 7 (FIG. 10B).\n(§4) RiboTAC Cellular Uptake Quantification. MDA-MB-231 cells were cultured as described in “Cell Culture” with a final cell density of 13,500 cells per well. Cells were treated with 7 (5 μM) for 0, 0.25, 0.5, 0.75, 1, 2, 3, 6, 12, 24, and 48 hours. Following treatment, cells were rapidly washed with 1×PBS to remove any unincorporated compound. Cells were then detached using 75 μl trypsin, immediately homogenized and flash frozen. The cell homogenate was analyzed using a Sciex 6500 mass spectrometer operated in multiple reaction monitoring mode with the transition m/z=1078.3/900.3. Homogenate drug levels were determined by comparison to a standard curve prepared in untreated cell homogenate. Calculated concentrations, (ng drug)/(ml homogenate) or μM drug inside cell, were fit to a one-phase association model using GraphPad Prism."}, "MDA-MB-231 cells [3]": {"tested_on": "MDA-MB-231 cells", "experiment": "RiboTAC cellular uptake quantification", "assay_type": "in vitro ADME", "method": "as §3, §4"}}}
{"smiles": "CNC(=O)[C@H](c1ccccc1)N(C)Cc1ccc(-c2cccc(-c3sccc3NC(=O)CCOCCOCCOCCC(=O)NCCN3CCN(c4ccc5nc(-c6c(N)c7c(F)cccc7[nH]c6=O)[nH]c5c4)CC3)c2)cc1", "note": "[RiboTAC 7, (S)—N-(2-(4-(2-(4-amino-5-fluoro-2-oxo-1,2-dihydroquinolin-3-yl)-1H-benzo[d]imidazol-6-yl)piperazin-1-yl)ethyl)-3-(2-(2-(3-((2-(4′-((methyl(2-(methylamino)-2-oxo-1-phenylethyl)amino)methyl)-[1,1′-biphenyl]-3-yl)thiophen-3-yl)amino)-3-oxopropoxy)ethoxy)ethoxy)propanamide]", "values": [{"measurement": "invasive phenotype induced by forced expression of pre-miR-21", "setting": "MCF-10A cells", "result": "rescued"}, {"measurement": "reduction of invasiveness", "setting": "MDA-MB-231 cells [1]", "result": "~30", "unit": "%"}, {"measurement": "reduction of pre-miR-21 abundance", "setting": "pre-miR-21; 48 h treatment, RNase L expressed", "result": "~30", "unit": "%"}, {"measurement": "treatment time at which pre-miR-21 degradation is first detectable", "setting": "pre-miR-21; time-course", "result": 48, "unit": "h"}, {"measurement": "effect on mature and pre-miR-21 levels", "setting": "mature and pre-miR-21", "result": "inactive"}, {"measurement": "half-life at 5 μM", "setting": "[2]", "result": 2.4, "unit": "h"}, {"measurement": "time to reach plateau of cellular accumulation", "setting": "MDA-MB-231 cells [3]; 5 μM in culture medium", "result": "about 8 h"}, {"measurement": "concentration inside cells", "setting": "MDA-MB-231 cells [3]; after 48 h treatment with 5 μM in culture medium", "result": "3.6 ± 1.2", "unit": "µM"}]}
